Laboratory results taken from US20100209345A1, “Fluorinated Ligands for Targeting Peripheral Benzodiazepine Receptors” (Australian Nuclear Science & Technology Organisation, priority 2006, published 2010).

Assay: Biodistribution of 18F-labelled tracers in rats
Format: in vivo
In short: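 Sprague-Dawley rats received 18F tracer, and brain and peripheral tissues were analysed at 15 and 30 min and 1 and 4 h post-injection. For specificity, rats were pretreated 5 min beforehand with PK11195 or Ro 5-4864 (PBR) or flumazenil (CBR), each at 1 mg/kg.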

[1] = SD rats, 15 min, decay correction not stated
[2] = SD rats, 4 hours, decay correction not stated
[3] = rats, 15 min, corrected for decay of 18F
[4] = rats, 15 min, not corrected for decay of 18F
[5] = rats, 30 min, corrected for decay of 18F
[6] = rats, 30 min, not corrected for decay of 18F
[7] = rats, 60 min (1 hour), not corrected for decay of 18F
[8] = rats, 60 min, corrected for decay of 18F
[9] = rats, 4 hours, corrected for decay of 18F
[10] = rats, 4 hours, not corrected for decay of 18F

CCN(CC)C(=O)Cc1c(-c2ccc(OCCCF)cc2)nc2ccc(Cl)cn12 [PBR111, 2-(2-(4-(3-fluoropropoxy)phenyl)-6-chloroimidazo[1,2-a]pyridin-3-yl)-N,N-diethylacetamide]
Biodistribution: Blood [1]: 0.4 % ID/g | Biodistribution: Bone [1]: 0.87 % ID/g | Biodistribution: Kidney [1]: 3.2 % ID/g | Biodistribution: Olfactory bulbs [1]: 0.64 % ID/g | Biodistribution: Adrenals (SD rats, 30 min, decay correction not stated): 6.5 % ID/g | Biodistribution: Adrenals [2]: 16 % ID/g | Biodistribution: Blood [2]: 0.1 % ID/g | Biodistribution: Bone [2]: 4.3 % ID/g | Biodistribution: Kidney [2]: 2.3 % ID/g | Biodistribution: Olfactory bulbs [2]: 0.41 % ID/g | Biodistribution: Bone [3]: 0.87 ± 0.12 % ID/g | Biodistribution: Heart [3]: 6.76 ± 0.82 % ID/g | Biodistribution: Lungs [3]: 14.39 ± 2.19 % ID/g | Biodistribution: Skin [3]: 0.34 ± 0.03 % ID/g | Biodistribution: Adrenals [4]: 8.36 ± 2.02 % ID/g | Biodistribution: Bladder [4]: 0.67 ± 0.36 % ID/g | Biodistribution: Blood [4]: 0.48 ± 0.11 % ID/g | Biodistribution: Bone [4]: 0.99 ± 0.18 % ID/g | Biodistribution: Brain [4]: 0.31 ± 0.06 % ID/g | Biodistribution: GIT [4]: 1.21 ± 0.11 % ID/g | Biodistribution: Heart [4]: 7.75 ± 1.08 % ID/g | Biodistribution: Kidney [4]: 5.18 ± 0.67 % ID/g | Biodistribution: Liver [4]: 1.54 ± 0.20 % ID/g | Biodistribution: Lungs [4]: 16.45 ± 2.81 % ID/g | Biodistribution: Muscle [4]: 0.68 ± 0.16 % ID/g | Biodistribution: Olfactory bulbs [4]: 0.74 ± 0.14 % ID/g | Biodistribution: Pancreas [4]: 2.33 ± 0.33 % ID/g | Biodistribution: Skin [4]: 0.39 ± 0.06 % ID/g | Biodistribution: Spleen [4]: 8.25 ± 2.25 % ID/g | Biodistribution: Stomach [4]: 0.95 ± 0.23 % ID/g | Biodistribution: Testes [4]: 0.35 ± 0.05 % ID/g | Biodistribution: Thymus [4]: 1.07 ± 0.23 % ID/g | Biodistribution: Thyroid [4]: 11.40 ± 0.33 % ID/g | Biodistribution: Bone [5]: 1.22 ± 0.10 % ID/g | Biodistribution: Heart [5]: 6.63 ± 0.35 % ID/g | Biodistribution: Lungs [5]: 8.41 ± 0.77 % ID/g | Biodistribution: Skin [5]: 0.37 ± 0.02 % ID/g | Biodistribution: Adrenals [6]: 9.06 ± 3.47 % ID/g | Biodistribution: Bladder [6]: 0.76 ± 0.16 % ID/g | Biodistribution: Blood [6]: 0.33 ± 0.11 % ID/g | Biodistribution: Bone [6]: 1.35 ± 0.27 % ID/g | Biodistribution: Brain [6]: 0.19 ± 0.04 % ID/g | Biodistribution: GIT [6]: 1.38 ± 0.36 % ID/g | Biodistribution: Heart [6]: 7.30 ± 0.90 % ID/g | Biodistribution: Kidney [6]: 4.77 ± 1.05 % ID/g | Biodistribution: Liver [6]: 0.94 ± 0.28 % ID/g | Biodistribution: Lungs [6]: 9.27 ± 1.60 % ID/g | Biodistribution: Muscle [6]: 0.62 ± 0.15 % ID/g | Biodistribution: Olfactory bulbs [6]: 0.60 ± 0.14 % ID/g | Biodistribution: Pancreas [6]: 1.49 ± 0.29 % ID/g | Biodistribution: Skin [6]: 0.41 ± 0.06 % ID/g | Biodistribution: Spleen [6]: 6.54 ± 1.35 % ID/g | Biodistribution: Stomach [6]: 1.18 ± 0.34 % ID/g | Biodistribution: Testes [6]: 0.38 ± 0.07 % ID/g | Biodistribution: Thymus [6]: 1.23 ± 0.47 % ID/g | Biodistribution: Thyroid [6]: 13.24 ± 4.62 % ID/g | Biodistribution: Adrenals [7]: 12.11 ± 3.32 % ID/g | Biodistribution: Bladder [7]: 1.24 ± 0.29 % ID/g | Biodistribution: Blood [7]: 0.24 ± 0.08 % ID/g | Biodistribution: Bone [7]: 2.41 ± 0.24 % ID/g | Biodistribution: Brain [7]: 0.17 ± 0.04 % ID/g | Biodistribution: GIT [7]: 1.89 ± 0.37 % ID/g | Biodistribution: Heart [7]: 8.41 ± 1.91 % ID/g | Biodistribution: Kidney [7]: 5.08 ± 1.23 % ID/g | Biodistribution: Liver [7]: 0.82 ± 0.22 % ID/g | Biodistribution: Lungs [7]: 7.29 ± 2.12 % ID/g | Biodistribution: Muscle [7]: 0.55 ± 0.11 % ID/g | Biodistribution: Olfactory bulbs [7]: 0.65 ± 0.14 % ID/g | Biodistribution: Pancreas [7]: 1.24 ± 0.36 % ID/g | Biodistribution: Skin [7]: 0.54 ± 0.07 % ID/g | Biodistribution: Spleen [7]: 6.72 ± 1.91 % ID/g | Biodistribution: Stomach [7]: 0.91 ± 0.06 % ID/g | Biodistribution: Testes [7]: 0.51 ± 0.09 % ID/g | Biodistribution: Thymus [7]: 1.39 ± 0.29 % ID/g | Biodistribution: Thyroid [7]: 13.04 ± 3.22 % ID/g | Biodistribution: Bone [8]: 2.04 ± 0.09 % ID/g | Biodistribution: Lungs [8]: 5.68 ± 1.03 % ID/g | Biodistribution: Skin [8]: 0.46 ± 0.02 % ID/g | Biodistribution: Bone [9]: 4.32 ± 0.33 % ID/g | Biodistribution: Lungs [9]: 3.02 ± 0.39 % ID/g | Biodistribution: Skin [9]: 0.63 ± 0.04 % ID/g | Biodistribution: Adrenals [10]: 17.81 ± 3.61 % ID/g | Biodistribution: Bladder [10]: 1.33 ± 0.17 % ID/g | Biodistribution: Blood [10]: 0.12 ± 0.02 % ID/g | Biodistribution: Bone [10]: 4.86 ± 0.86 % ID/g | Biodistribution: Brain [10]: 0.10 ± 0.02 % ID/g | Biodistribution: GIT [10]: 2.01 ± 0.27 % ID/g | Biodistribution: Heart [10]: 4.92 ± 0.66 % ID/g | Biodistribution: Kidney [10]: 2.57 ± 0.48 % ID/g | Biodistribution: Liver [10]: 0.44 ± 0.07 % ID/g | Biodistribution: Lungs [10]: 3.37 ± 0.40 % ID/g | Biodistribution: Muscle [10]: 0.19 ± 0.05 % ID/g | Biodistribution: Olfactory bulbs [10]: 0.47 ± 0.06 % ID/g | Biodistribution: Pancreas [10]: 0.61 ± 0.10 % ID/g | Biodistribution: Skin [10]: 0.71 ± 0.07 % ID/g | Biodistribution: Spleen [10]: 3.45 ± 0.43 % ID/g | Biodistribution: Stomach [10]: 0.51 ± 0.06 % ID/g | Biodistribution: Testes [10]: 0.67 ± 0.08 % ID/g | Biodistribution: Thymus [10]: 1.88 ± 0.40 % ID/g | Biodistribution: Thyroid [10]: 8.91 ± 1.19 % ID/g
